From US20140005163A1 (NOVARTIS AG, priority 2010, published 2014)
Values after ≈ are worked out from the molar mass of the structure shown. Like-named read-outs stand apart in the source and are kept apart here.

Assays:
[1] = system: PKB Ser473 phosphorylation in Rat1-myr-HA-p110 alpha cells; assay: Reverse protein array assay, PKB Ser473 phosphorylation in Rat1-myr-p110 alpha cells; assay type: cell-based; details: 0.5 h, pAkt Ser473, 30 minutes compound incubation, read-out: p-PKB IC50
Outline: (§1)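 Measured: PKB Ser473 phosphorylation by reverse protein array in Rat1 cells expressing myr-HA-p110 alpha, beta or delta, after 30 min compound treatment at 37 °C with 0.2% DMSO vehicle.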

PI3K gamma = molecular target: T1, PI3K gamma (Homo sapiens, UniProt P48736); assay: PI3K gamma kinase assay (Kinase-Glo luminescence); assay type: biochemical
T1 construct: His tag (C); made in house; host or cells: baculovirus (pVL1393); Tn5 or TiniPro insect cells; construct from Roger Williams lab, MRC LMB
Description: In a more preferred assay, the kinase reaction is performed in a final volume of 10 μL per well of a low volume non binding CORNING, 384 well black plate (Cat. No. #3676). The final concentrations of ATP and phosphatidyl inositol (PI) in the assay are 1 μM and 10 μg/mL respectively. The reaction is started by the addition of ATP.
The components of the assay are added per well as follows:
[…] in 90% DMSO per well, in columns 1-20, 8 concentrations (1/3 and 1/3.33 serial dilution step) in single. • Low control: […] of 90% DMSO in half the wells of columns 23-24 (0.45% in final). • High control: […] of reference compound (e.g. compound of Example 7 in WO 2006/122806) in the other half of columns 23-24 (2.5 μM in final). • Standard: […] of reference compound as just mentioned diluted as the test compounds in columns 21-22 • 20 mL ‘buffer’ are prepared per assay: • 200 μL of 1M TRIS HCl pH7.5 (10 mM in final) • 60 μL of 1M MgCl2 (3 mM in final) • 500 μL of 2M NaCl (50 mM in final) • 100 μL of 10% CHAPS (0.05% in final) • 200 μL of 100 mM DTT (1 mM in final) • 18.94 mL of nanopure water • 10 mL ‘PI’ are prepared per assay: • 200 μL of 1 mg/ml L-alpha-Phosphatidylinositol (Liver Bovine, Avanti Polar Lipids Cat. No. 840042C MW=909.12) prepared in 3% OctylGlucoside (10 μg/ml in final) • 9.8 mL of ‘buffer’ • 10 mL ‘ATP’ are prepared per assay: • 6.7 μL of 3 mM stock of ATP giving a final concentration of 1 μM per well • 10 mL of ‘buffer’ • 2.5 mL of each PI3K construct are prepared per assay in ‘PI’ with the following final concentration: • 10 nM PI3K alfa EMV B1075 • 25 nM beta EMV BV949 • 10 nM delta EMV BV1060 • 150 nM gamma EMV BV950 • 5 μL of ‘PI/PI3K’ are added per well. • 5 μl ‘ATP’ are added per well to start the reaction. • The plates are then incubated at room temperature for 60 minutes (alfa, beta, delta) or 120 minutes (gamma). • The reaction is terminated by the addition of 10 μL Kinase-Glo (Promega Cat. No. #6714). • The assay plates are read after 10 minutes in Synergy 2 reader (BioTek, Vermont USA) with an integration time of 100 milliseconds and sensitivity set to 191. • Output: The High control is around 60'000 counts and the Low control is 30'000 or lower • This luminescence assay gives a useful Z′ ratio between 0.4 and 0.7
IC50 is determined by a four parameter curve fitting routine that comes along with “excel fit”. […] Alternatively, IC50 values are calculated using idbsXLfit model 204, which is a 4 parameter logistic model.

PI3K beta = molecular target: T2, PI3K beta (Homo sapiens, UniProt P42338); assay: PI3K beta kinase assay (Kinase-Glo luminescence); assay type: biochemical
T2 construct: for the full-length p110-b subunit are generated and fused by overlapping PCR; p85(iSH2) fusion partner (see partner chain) (N); His tag (C); made in house; host or cells: baculovirus; Tn5 (Trichoplusia ni) or TiniPro insect cells
Outline: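 Enzyme: BV949 p85(iSH2)-Gly linker-p110β FL-His, 25 nM. Substrate: PI 10 μg/mL. ATP: 1 μM, added to start. Buffer: Tris pH 7.5 10 mM, MgCl2 3 mM, NaCl 50 mM, CHAPS 0.05%, DTT 1 mM. RT, 60 min. Readout: Kinase-Glo. IC50 by 4-parameter fit.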

[2] = system: PKB Ser473 phosphorylation in Rat1-myr-HA-p110 beta cells; assay: Reverse protein array assay, PKB Ser473 phosphorylation in Rat1-myr-p110 beta cells; assay type: cell-based; details: 0.5 h, pAkt Ser473, 30 minutes incubation, read-out: p-PKB IC50
Outline: as §1

mTOR = molecular target: T3, mTOR (Homo sapiens, UniProt P42345); assay: Biochemical assay for m-TOR by TR-FRET; details: 8 μM ATP, 400 nM GFP-4EBP1, 0.5 nM mTOR
T3 construct: purchased Invitrogen Corporation (Carlsbad/CA, USA) PV4753
Outline: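 Steps: ATP (8 μM final) plus GFP-4EBP1 (400 nM final) combined with mTOR (0.5 nM final), incubated at rt; buffer HEPES pH 7.5 with 10 mM MnCl2, NaCl, EGTA, DTT. Then stopped with EDTA/Tb3+-anti-p4EBP1 pT46 Ab (0.5 nM). Plates read after 15 min.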

PI3K delta = molecular target: T4, PI3K delta (Homo sapiens, UniProt O00329); assay: PI3K delta kinase assay (Kinase-Glo luminescence); assay type: biochemical
T4 construct: for the full-length p110-d subunit are generated and fused by overlapping PCR; p85(iSH2) fusion partner (see partner chain) (N); His tag (C); made in house; host or cells: baculovirus; Tn5 (Trichoplusia ni) or TiniPro insect cells
Outline: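 Construct BV-1060, p85 iSH2–linker–full-length p110δ, His-tagged, at 10 nM, with 1 μM ATP and 10 μg/mL phosphatidylinositol in pH 7.5 Tris, 3 mM MgCl2, 50 mM NaCl, 0.05% CHAPS. Run 60 min at room temperature; remaining ATP read by Kinase-Glo luminescence; IC50 from 4-parameter logistic fit of 8 concentrations.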

PI3K alpha = molecular target: T5, PI3K alpha (Homo sapiens, UniProt P42336); assay: PI3K alpha kinase assay (Kinase-Glo luminescence); assay type: biochemical
T5 construct: p85(iSH2) fusion partner (see partner chain) (N); His tag (C); made in house; host or cells: baculovirus; Tn5 (Trichoplusia ni) or TiniPro insect cells
Outline: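 PI3K alpha at 10 nM with 1 μM ATP and 10 μg/mL phosphatidylinositol in 10 mM TRIS pH 7.5, 3 mM MgCl2, 50 mM NaCl, 0.05% CHAPS, 1 mM DTT, 60 min at room temperature. Remaining ATP read by Kinase-Glo luminescence. IC50 by 4-parameter fit over 8 concentrations.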

[3] = system: PKB Ser473 phosphorylation in Rat1-myr-HA-p110 delta cells; assay: Reverse protein array assay, PKB Ser473 phosphorylation in Rat1-myr-p110 delta cells; assay type: cell-based; details: read-out: p-PKB IC50
Outline: as §1

Solubility at pH 6.8 = assay type: physicochemical
Outline: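 Solubility was measured at pH 6.8 following the cited Zhou et al. (2007) procedure.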

[4] = system: S6 Ribosomal Protein phosphorylation Ser235/236 in TSC1 null mouse embryo fibroblast (MEF) cells; assay: Reverse protein array assay, S6 Ribosomal Protein phosphorylation Ser235/236 in TSC1 null MEF cells; assay type: cell-based; details: 1 h, pS6 ribosomal protein Ser235/236, 60 minutes incubation, read-out: p-S6 IC50
Outline: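 TSC1−/− MEFs, seeded and held ≥20 h at 37 °C/5% CO2, were exposed to 8-step serial compound dilutions (0.02% DMSO final; DMSO vehicle control) for 60 min at 37 °C. Cells were then lysed on ice for 10 min and lysates spotted onto reverse protein array chips.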

[5] = pH 6.8, aqueous buffer, thermodynamic from solid, read-out: solubility

T3 sequence (P42345 1360-2549 limits assumed): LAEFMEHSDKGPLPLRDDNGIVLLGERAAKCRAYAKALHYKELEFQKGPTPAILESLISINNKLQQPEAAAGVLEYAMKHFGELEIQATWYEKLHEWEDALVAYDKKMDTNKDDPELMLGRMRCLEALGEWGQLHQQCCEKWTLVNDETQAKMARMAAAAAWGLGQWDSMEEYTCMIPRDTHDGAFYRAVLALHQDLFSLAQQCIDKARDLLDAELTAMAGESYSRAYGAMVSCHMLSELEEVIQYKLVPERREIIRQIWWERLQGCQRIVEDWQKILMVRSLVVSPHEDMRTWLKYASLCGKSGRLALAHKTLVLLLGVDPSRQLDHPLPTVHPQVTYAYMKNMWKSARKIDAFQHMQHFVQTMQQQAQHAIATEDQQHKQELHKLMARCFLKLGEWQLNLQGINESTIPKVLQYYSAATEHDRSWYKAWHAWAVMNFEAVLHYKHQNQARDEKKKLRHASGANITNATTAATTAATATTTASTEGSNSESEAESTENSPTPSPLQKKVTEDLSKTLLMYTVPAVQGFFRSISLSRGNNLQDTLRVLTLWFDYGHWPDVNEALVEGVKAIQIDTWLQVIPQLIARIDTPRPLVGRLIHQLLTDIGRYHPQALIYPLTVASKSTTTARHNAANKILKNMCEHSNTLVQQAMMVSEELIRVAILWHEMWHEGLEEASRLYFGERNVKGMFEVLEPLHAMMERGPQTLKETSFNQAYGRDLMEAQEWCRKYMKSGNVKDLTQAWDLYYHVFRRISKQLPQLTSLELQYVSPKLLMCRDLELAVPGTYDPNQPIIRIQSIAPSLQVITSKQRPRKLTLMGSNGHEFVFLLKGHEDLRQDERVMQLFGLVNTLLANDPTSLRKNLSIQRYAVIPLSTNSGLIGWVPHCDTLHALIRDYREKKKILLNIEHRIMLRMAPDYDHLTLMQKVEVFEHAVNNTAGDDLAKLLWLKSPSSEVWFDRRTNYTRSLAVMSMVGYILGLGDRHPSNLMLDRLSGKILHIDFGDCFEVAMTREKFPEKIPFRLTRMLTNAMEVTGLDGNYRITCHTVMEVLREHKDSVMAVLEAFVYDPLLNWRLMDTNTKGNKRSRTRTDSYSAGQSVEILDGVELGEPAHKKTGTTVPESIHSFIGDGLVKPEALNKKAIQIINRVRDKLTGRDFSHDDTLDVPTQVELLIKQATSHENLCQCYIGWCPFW
T5 sequence (P42336 with tags, fused parts or gaps limits assumed): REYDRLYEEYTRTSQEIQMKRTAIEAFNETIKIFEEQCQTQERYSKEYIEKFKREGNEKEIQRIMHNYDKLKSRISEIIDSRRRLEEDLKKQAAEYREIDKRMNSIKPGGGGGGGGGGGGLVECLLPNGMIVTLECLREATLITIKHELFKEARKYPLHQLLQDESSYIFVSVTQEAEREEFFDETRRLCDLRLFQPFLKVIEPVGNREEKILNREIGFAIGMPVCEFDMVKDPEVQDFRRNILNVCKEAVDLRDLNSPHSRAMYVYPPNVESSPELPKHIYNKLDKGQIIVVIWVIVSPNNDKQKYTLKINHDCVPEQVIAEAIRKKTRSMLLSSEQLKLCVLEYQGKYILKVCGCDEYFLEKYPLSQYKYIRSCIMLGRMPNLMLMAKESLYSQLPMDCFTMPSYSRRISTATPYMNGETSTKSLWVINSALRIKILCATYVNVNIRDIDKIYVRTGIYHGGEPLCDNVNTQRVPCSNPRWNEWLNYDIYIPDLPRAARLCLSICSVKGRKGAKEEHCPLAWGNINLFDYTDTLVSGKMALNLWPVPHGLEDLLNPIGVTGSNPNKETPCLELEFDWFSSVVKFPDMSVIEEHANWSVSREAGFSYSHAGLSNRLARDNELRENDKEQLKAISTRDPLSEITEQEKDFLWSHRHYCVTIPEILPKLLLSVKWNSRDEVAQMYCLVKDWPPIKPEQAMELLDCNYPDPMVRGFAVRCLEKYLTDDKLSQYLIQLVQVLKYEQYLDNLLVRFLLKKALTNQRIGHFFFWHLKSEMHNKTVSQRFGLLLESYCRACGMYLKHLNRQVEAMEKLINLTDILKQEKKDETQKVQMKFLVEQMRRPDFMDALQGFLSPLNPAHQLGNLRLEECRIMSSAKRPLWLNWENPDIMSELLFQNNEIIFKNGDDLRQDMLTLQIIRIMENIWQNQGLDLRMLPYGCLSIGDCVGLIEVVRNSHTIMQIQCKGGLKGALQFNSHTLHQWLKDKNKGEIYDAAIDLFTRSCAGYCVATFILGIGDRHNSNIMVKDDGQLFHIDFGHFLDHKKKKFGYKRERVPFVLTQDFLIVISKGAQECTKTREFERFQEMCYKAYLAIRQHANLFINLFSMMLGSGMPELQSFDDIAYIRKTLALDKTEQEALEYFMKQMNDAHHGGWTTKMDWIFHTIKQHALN
T1 sequence (P48736 144-1102 limits assumed): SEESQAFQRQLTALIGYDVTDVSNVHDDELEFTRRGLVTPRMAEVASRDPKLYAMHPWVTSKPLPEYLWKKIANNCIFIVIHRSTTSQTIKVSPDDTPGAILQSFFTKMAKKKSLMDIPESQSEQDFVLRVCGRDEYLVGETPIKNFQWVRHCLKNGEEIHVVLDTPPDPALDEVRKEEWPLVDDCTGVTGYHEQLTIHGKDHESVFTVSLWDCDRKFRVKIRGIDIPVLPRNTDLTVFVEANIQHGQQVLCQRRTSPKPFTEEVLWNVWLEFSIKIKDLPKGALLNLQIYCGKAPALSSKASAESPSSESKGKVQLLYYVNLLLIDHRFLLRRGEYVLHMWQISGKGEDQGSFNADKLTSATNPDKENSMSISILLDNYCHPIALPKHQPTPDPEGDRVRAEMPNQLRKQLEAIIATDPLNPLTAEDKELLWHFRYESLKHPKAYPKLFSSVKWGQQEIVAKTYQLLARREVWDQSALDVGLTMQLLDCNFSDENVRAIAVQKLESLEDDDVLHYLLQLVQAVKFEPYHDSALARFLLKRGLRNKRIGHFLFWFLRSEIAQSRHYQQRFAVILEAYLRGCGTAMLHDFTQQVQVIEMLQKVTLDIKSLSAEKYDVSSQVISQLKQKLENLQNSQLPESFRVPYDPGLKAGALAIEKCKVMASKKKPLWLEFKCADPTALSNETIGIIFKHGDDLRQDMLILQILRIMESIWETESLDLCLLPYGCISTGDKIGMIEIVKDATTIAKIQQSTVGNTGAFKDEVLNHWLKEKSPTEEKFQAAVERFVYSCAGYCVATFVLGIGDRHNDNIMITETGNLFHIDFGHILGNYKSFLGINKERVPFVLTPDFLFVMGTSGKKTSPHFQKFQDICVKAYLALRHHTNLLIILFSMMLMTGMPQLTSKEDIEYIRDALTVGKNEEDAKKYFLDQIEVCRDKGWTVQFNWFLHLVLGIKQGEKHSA
T4 sequence (O00329 with tags, fused parts or gaps limits assumed): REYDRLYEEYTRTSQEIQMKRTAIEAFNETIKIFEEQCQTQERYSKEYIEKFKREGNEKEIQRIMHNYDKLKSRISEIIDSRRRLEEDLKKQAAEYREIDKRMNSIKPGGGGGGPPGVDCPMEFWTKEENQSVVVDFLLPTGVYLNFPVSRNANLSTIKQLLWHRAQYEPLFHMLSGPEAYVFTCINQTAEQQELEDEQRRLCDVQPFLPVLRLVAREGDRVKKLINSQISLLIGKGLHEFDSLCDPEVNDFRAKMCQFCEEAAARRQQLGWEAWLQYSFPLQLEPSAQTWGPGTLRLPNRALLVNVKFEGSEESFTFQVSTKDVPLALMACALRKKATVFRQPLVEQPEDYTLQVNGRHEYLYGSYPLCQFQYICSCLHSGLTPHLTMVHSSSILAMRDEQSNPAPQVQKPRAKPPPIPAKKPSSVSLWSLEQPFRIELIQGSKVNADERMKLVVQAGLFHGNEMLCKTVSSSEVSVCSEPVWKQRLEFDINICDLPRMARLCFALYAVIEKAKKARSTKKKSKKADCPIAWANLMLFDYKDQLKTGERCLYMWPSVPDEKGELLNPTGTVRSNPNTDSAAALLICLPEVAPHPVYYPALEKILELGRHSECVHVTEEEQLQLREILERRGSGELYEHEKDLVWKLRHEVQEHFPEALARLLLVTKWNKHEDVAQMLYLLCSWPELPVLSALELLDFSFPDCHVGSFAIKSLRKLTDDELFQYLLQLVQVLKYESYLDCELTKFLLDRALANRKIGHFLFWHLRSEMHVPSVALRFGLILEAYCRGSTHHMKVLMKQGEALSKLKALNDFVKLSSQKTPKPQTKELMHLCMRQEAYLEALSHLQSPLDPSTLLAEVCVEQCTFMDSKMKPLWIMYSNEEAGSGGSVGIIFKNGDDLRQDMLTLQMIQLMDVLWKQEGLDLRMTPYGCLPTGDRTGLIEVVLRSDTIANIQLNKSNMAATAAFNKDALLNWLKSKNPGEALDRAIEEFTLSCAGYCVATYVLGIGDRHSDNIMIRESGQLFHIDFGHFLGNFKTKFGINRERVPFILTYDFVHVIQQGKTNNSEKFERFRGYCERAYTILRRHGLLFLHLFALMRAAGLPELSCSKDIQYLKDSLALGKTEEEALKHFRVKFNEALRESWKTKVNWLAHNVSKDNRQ

SMILES | IC50 [1] | IC50 (PI3K gamma) | IC50 (PI3K beta) | IC50 [2] | IC50 (mTOR) | IC50 (PI3K delta) | IC50 (PI3K alpha) | IC50 [3] | solubility (Solubility at pH 6.8; [5]) | solubility (Solubility at pH 6.8; pH 6.8) | IC50 [4]
Cc1nn(C)cc1-n1c(=O)n(C)c2cnc3ccc(-c4cc(O)cc(F)c4)cc3c21 [Example 33, 1-(1,3-Dimethyl-1H-pyrazol-4-yl)-8-(3-fluoro-5-hydroxy-phenyl)-3-methyl-1,3-dihydro-imidazo[4,5-c]quinolin-2-one] | 162 nM | 128 nM | 46 nM | 214 nM | 110 nM | 16 nM | 9 nM | 399 nM | – | – | –
Cc1nn(C)c(C)c1-n1c(=O)n(C)c2cnc3ccc(-c4ccccc4)cc3c21 [Example 37.2, 3-Methyl-8-phenyl-1-(1,3,5-trimethyl-1H-pyrazol-4-yl)-1,3-dihydro-imidazo[4,5-c]quinolin-2-one] | – | 335 nM | – | – | – | 465 nM | 250 nM | – | 355 µg/mL (≈ 926 µM) | – | –
Cc1nn(C)cc1-n1c(=O)n(C)c2cnc3ccc(-c4ccc(C(=O)N(C)C)cc4)cc3c21 [Example 48, 4-[1-(1,3-Dimethyl-1H-pyrazol-4-yl)-3-methyl-2-oxo-2,3-dihydro-1H-imidazo[4,5-c]quinolin-8-yl]-N,N-dimethyl-benzamide] | – | 760 nM | – | – | – | – | – | – | – | 2 µg/mL (≈ 4.54 µM) | –
Cc1nn(C)cc1-n1c(=O)n(C)c2cnc3ccc(-c4cnccn4)cc3c21 [Example 115, 1-(1,3-Dimethyl-1H-pyrazol-4-yl)-3-methyl-8-pyrazin-2-yl-1,3-dihydro-imidazo[4,5-c]quinolin-2-one] | 208 nM | 851 nM | – | 308 nM | – | 800 nM | 148 nM | – | 128 µg/mL (≈ 345 µM) | – | –
Cc1nn(C)cc1-n1c(=O)n(C)c2cnc3ccc(-c4cncc(NS(C)(=O)=O)c4)cc3c21 [Example 120, N-{5-[1-(1,3-Dimethyl-1H-pyrazol-4-yl)-3-methyl-2-oxo-2,3-dihydro-1H-imidazo[4,5-c]quinolin-8-yl]-pyridin-3-yl}-methanesulfonamide] | – | 116 nM | 18 nM | – | 5 nM | 10 nM | 11 nM | – | – | – | 355 nM
Cc1nn(C)cc1-n1c(=O)n(C)c2cnc3ccc(-c4ccc(-c5nn[nH]n5)nc4)cc3c21 [Example 123, 1-(1,3-Dimethyl-1H-pyrazol-4-yl)-3-methyl-8-[6-(2H-tetrazol-5-yl)-pyridin-3-yl]-1,3-dihydro-imidazo[4,5-c]quinolin-2-one] | – | 173 nM | – | – | 232 nM | – | 446 nM | – | 65 µg/mL (≈ 148 µM) | – | –
